In article PMC8157871, “Synthesis, Anticancer Screening of Some Novel Trimethoxy Quinazolines and VEGFR2, EGFR Tyrosine Kinase Inhibitors Assay; Molecular Docking Studies” (Molecules, 2021):

Columns and labels:
[1] = system: Hela cells; experiment: Cytotoxicity against Hela cell line; settings: read-out: Cytotoxicity IC50 Hela
[2] = system: A549 cell line; experiment: Cytotoxicity against A549 cell line; settings: read-out: Cytotoxicity IC50 A549
[3] = system: MDA cells; experiment: Cytotoxicity against MDA cell line; settings: read-out: Cytotoxicity IC50 MDA
[4] = target: VEGFR2 (Homo sapiens, UniProt P35968); experiment: VEGFR2 enzyme inhibitory activity
Experimental: (§1) The synthesized compounds were evaluated for anticancer activity by adapting a reported procedure [29, 30, 31, 32, 33] using two enzymes, VEGFR2 and EGFR, as well as three cell lines.

[5] = target: EGFR (Homo sapiens, UniProt P00533); experiment: EGFR enzyme inhibitory activity
Experimental: as §1

[6] = relative to docetaxel, from IC50 values

Chain of VEGFR2 (P35968 20-1356): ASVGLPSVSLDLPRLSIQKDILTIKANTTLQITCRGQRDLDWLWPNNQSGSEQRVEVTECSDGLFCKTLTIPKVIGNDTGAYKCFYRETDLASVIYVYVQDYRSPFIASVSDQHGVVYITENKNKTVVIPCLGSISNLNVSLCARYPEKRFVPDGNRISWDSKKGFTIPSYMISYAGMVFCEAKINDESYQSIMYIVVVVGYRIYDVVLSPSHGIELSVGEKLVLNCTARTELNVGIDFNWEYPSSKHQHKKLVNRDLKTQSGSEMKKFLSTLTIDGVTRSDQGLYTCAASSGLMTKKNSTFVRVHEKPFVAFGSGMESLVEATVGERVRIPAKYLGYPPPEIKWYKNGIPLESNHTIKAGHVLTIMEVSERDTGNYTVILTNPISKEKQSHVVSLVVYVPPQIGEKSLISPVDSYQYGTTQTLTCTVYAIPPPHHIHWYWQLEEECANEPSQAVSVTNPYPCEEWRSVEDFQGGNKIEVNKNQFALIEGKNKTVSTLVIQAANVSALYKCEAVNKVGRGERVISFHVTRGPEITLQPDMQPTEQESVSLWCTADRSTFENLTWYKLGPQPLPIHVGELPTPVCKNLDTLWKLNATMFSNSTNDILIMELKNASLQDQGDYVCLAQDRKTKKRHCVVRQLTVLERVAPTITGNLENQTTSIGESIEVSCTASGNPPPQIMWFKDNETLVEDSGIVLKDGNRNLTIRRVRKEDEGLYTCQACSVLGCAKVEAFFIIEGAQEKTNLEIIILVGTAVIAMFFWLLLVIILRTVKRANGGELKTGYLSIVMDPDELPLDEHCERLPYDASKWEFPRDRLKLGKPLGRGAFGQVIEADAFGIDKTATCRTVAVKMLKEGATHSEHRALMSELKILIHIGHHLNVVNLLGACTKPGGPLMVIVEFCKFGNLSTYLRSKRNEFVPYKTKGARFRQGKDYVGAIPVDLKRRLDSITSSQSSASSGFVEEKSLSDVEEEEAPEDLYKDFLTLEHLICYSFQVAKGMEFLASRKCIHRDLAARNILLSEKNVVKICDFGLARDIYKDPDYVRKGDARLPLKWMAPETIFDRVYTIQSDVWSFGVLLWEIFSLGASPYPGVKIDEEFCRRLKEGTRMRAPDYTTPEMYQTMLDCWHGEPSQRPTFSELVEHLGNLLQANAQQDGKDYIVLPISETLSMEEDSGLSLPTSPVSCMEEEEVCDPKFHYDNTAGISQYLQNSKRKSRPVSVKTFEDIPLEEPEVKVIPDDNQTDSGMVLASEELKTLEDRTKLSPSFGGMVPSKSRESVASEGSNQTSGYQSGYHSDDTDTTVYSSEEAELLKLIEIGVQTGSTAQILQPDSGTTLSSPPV
Chain of EGFR (P00533 25-1210): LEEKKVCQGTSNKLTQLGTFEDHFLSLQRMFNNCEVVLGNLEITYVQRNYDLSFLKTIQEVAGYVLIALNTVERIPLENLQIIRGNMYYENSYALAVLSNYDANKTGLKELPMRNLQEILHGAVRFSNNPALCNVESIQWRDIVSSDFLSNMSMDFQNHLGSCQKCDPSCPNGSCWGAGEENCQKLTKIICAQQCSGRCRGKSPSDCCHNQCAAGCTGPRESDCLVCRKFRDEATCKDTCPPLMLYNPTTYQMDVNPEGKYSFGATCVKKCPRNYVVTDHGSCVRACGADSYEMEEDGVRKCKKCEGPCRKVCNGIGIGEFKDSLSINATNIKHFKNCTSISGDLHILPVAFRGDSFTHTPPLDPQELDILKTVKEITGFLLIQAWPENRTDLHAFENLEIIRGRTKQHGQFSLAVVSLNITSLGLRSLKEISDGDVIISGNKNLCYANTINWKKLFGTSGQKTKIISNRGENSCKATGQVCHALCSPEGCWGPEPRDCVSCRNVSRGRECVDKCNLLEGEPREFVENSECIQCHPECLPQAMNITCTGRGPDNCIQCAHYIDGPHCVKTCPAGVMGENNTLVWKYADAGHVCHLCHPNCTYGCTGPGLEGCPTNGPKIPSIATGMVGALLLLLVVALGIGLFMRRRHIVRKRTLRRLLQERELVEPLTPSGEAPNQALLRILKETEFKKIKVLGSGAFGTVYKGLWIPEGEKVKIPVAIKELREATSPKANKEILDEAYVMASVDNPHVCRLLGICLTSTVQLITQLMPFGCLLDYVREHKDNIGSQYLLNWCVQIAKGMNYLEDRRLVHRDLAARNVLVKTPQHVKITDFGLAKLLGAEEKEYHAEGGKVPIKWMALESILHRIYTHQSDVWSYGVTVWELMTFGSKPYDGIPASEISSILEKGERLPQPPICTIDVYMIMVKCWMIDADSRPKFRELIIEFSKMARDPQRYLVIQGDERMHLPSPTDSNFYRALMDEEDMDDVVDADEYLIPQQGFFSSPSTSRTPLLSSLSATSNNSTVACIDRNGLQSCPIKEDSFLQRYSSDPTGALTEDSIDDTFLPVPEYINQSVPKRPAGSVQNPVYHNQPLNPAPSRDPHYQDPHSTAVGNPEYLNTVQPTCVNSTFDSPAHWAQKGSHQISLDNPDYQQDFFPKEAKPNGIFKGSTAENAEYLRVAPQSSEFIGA

SMILES	melting point [°C]	IC50 [4] [µM]	IC50 [5] [µM]	inhibitory activity for enzyme VEGFR2 compared to the reference drug [4, 6] [%]	inhibitory activity for enzyme EGFR compared to the reference drug [5, 6] [%]	IC50 [1] [µM]	IC50 [2] [µM]	IC50 [3] [µM]
COc1cc(-c2nc3c(OC)cccc3c(=O)n2N)cc(OC)c1OC [Compound 4, 3-amino-8-methoxy-2-trimethoxyphenylquanazoline-4(3H)-one]	182 to 184					29.8 ± 0.78	18 ± 0.5	4.12 ± 0.1
COc1cc(-c2nc3c(OC)cccc3c(=O)[nH]2)cc(OC)c1OC [Compound 5, 8-methoxy-2-trimethoxyphenylquanazoline-4(3H)-one]	242 to 244					12.9 ± 0.34	26.3 ± 0.7	4.39 ± 0.1
COc1cccc(C(=O)NN)c1NC(=O)c1cc(OC)c(OC)c(OC)c1 [Compound 7, 3-methoxy-2-(trimethoxybenzamido)-benzoylhydrazide]	195 to 197					18.7 ± 0.49	46.3 ± 1.2	9 ± 0.2
COc1cccc(C(N)=O)c1NC(=O)c1cc(OC)c(OC)c(OC)c1 [Compound 6]	132 to 134	0.0981 ± 0.00293	0.106 ± 0.00222	~91	~53	2.8 ± 0.07	81 ± 2.1	0.79 ± 0.04
COc1cc(-c2nc3c(OC)cccc3c(=O)o2)cc(OC)c1OC [Compound 3, 8-methoxy-2-trimethoxyphenyl-4H-benzo[d](1,3)oxazin-4-one]	182 to 184					66.5 ± 1.74	43.6 ± 1.1	17.4 ± 0.5

Now from value to compound, other results behind:

melting point [°C]	IC50 [4] [µM]	IC50 [5] [µM]	inhibitory activity for enzyme VEGFR2 compared to the reference drug [4, 6] [%]	inhibitory activity for enzyme EGFR compared to the reference drug [5, 6] [%]	SMILES	IC50 [1] [µM]	IC50 [2] [µM]	IC50 [3] [µM]
218 to 220					COc1cc(-c2nc3c(OC)cccc3c(=O)n2C)cc(OC)c1OC [Compound 10, 3-methyl-8-methoxy-2-trimethoxyphenylquanazoline-4(3H)-one]	3.98 ± 0.1	12.3 ± 0.3	7.77 ± 0.2
263 to 265					COc1cccc(C(=O)NNS(=O)(=O)c2ccccc2)c1NC(=O)c1cc(OC)c(OC)c(OC)c1 [Compound 8, 3-methoxy-2-(trimethoxybenzamido)-N-[benzenesulphonyl]benzoylhydrazide]	4.94 ± 0.13	13 ± 0.3	11.7 ± 0.3
	0.0893 ± 0.00267	0.0561 ± 0.00117			CC(=O)O[C@@]12CO[C@@H]1C[C@H](O)[C@@]1(C)C(=O)[C@H](O)C3=C(C)[C@@H](OC(=O)[C@H](O)[C@@H](NC(=O)OC(C)(C)C)c4ccccc4)C[C@@](O)([C@@H](OC(=O)c4ccccc4)[C@H]21)C3(C)C [Docetaxel, docetaxel, reference compound]	9.65 ± 0.2	10.8 ± 0.23	3.98 ± 0.08
244 to 246					COc1cc(-c2nc3c(OC)cccc3c(=O)n2NS(=O)(=O)c2ccccc2)cc(OC)c1OC [Compound 9, 3-benzenesulfamoyl-8-methoxy-2-trimethoxyphenylquanazoline-4(3H)-one]	11.7 ± 0.31	19.9 ± 0.5	3.42 ± 0.1
237 to 239					COc1cc(-c2nc3c(OC)cccc3c(=O)n2-c2cc(OC)c(OC)c(OC)c2)cc(OC)c1OC [Compound 11]	12 ± 0.31	4.03 ± 0.1	7.06 ± 0.2
